Test results reported in patent US7470714B2, “GM-95-containing antitumor effect potentiator, combined antitumor preparation and antitumor agent” (Sosei Co., Ltd., priority 2003, dated 2008).
One block for each molecule: values may come before it.

Key:
Solubility in solvents = type: physicochemical
K562 cells = test: Apoptosis induction into K562 cells by combined use, flow cytometry with APO 2.7 antibody; type: cell-based; settings: K562 cells cultured 10 days with 2 μM Telomestatin, then 72 hours with the antitumor substance
Procedure: K562 cells (available from ATCC (Rockville, Md.)) were cultured for 10 days in the presence of 2 μM Telomestatin (GM-95 substance). Subsequently, the Telomestatin-treated K562 cells were incubated for 72 hours together with Imanitib, Daunorubicin (DNR), Mitoxantrone (MIT), or Vincristine (VCR). The expression of apoptosis was measured by flow cytometric analysis using an FITC conjugate APO 2.7 monoclonal antibody (which is generated to a mitochondrial membrane protein (7A6 antigen) and is expressed in cells wherein apoptosis takes place). In the figures, the terms “control,” “TMS,” “Imanitib,” “DNR,” “MIT,” and “VCR” represent a control substance, the GM-95 substance (Telomestatin), Imanitib, Daunorubicin, Mitoxantrone, and Vincristine, respectively.

HT1080 cells = test: Combined use of GM-95 substance with another antitumor substance, survival rate by MTT method; type: cell-based
Procedure: Tumor cells were cultured under the conditions described below using the GM-95 substance and another antitumor substance in the same manner as in Example 3. After a certain period of time had passed, the survival rate of the tumor cells was measured.
HT1080 cells were used as tumor cells. In the following experiments, the tumor cells were cultured in a medium formed by adding 10% FBS to RPMI1640 (SIGMA, R8758) using a CO2 incubator (temperature: 37° C.; humidity: 100%; CO2 concentration: 5%).
HT1080 cells were cultured under conditions described in the following (A) to (C). After completion of the culture, the survival rate of the tumor cells was measured by the MTT method. • (A): 0.5 μM GM-95 substance and each of the aforementioned antitumor substances with a certain concentration were simultaneously added to the HT1080 cells, and the tumor cells were then cultured for 2 days. After completion of the culture, the survival rate of the tumor cells was measured. • (B): The tumor cells were previously cultured for 7 days together with 0.5 μM or 1 μM GM-95 substance. […] After completion of the culture, the survival rate of the tumor cells was measured. • (C): The tumor cells were previously cultured for 7 or 14 days together with 0.5 μM or 1 μM GM-95 substance. […] After completion of the culture, the survival rate of the tumor cells was measured. […]

MCF-7 cells = test: as above; type: cell-based; settings: 1 μM or 2 μM GM-95 for 7 or 14 days, then 2 days with antitumor substance
Procedure: Tumor cells were cultured under the conditions described below using the GM-95 substance and another antitumor substance in the same manner as in Example 5. After a certain period of time had passed, the survival rate of the tumor cells was measured.
MCF-7 cells were used as tumor cells. In the following experiments, the tumor cells were cultured in a medium formed by adding 10% FBS to DMEM (SIGMA, D6046) using a CO2 incubator (temperature: 37° C.; humidity: 100%; CO2 concentration: 5%).
MCF-7 cells were cultured under conditions described in the following (D) and (E). After completion of the culture, the survival rate of the tumor cells was measured by the MTT method. • (D): The tumor cells were previously cultured for 7 days together with 1 μM or 2 μM GM-95 substance. Thereafter, each of the aforementioned antitumor substances with a certain concentration was added to the cells in the absence of the GM-95 substance, followed by culture for 2 days. After completion of the culture, the survival rate of the tumor cells was measured. • (E): The tumor cells were previously cultured for 14 days together with 1 μM or 2 μM GM-95 substance. […] After completion of the culture, the survival rate of the tumor cells was measured. […]

[1] = system: several types of cancer cells; test: Action of the GM-95 substance on several types of cancer cells; type: cell-based
Procedure: The inventors have already reported the details thereof (refer to International Publication WO00/24747, for example). The GM-95 substance is the strongest telomerase inhibitor among telomerase inhibitors including synthetic compounds that have been reported to date. The action of the GM-95 substance on several types of cancer cells was analyzed. […] In addition, the aged cells had lost their tumorigenicity.

- Solubility in acetone (Solubility in solvents; acetone): insoluble
- Solubility in a mixture consisting of chloroform and methanol (1:1) (Solubility in solvents; chloroform and methanol (1:1)): soluble
- Solubility in water (Solubility in solvents; water): insoluble
SMILES: Cc1oc2nc1-c1nc(co1)-c1nc(co1)-c1nc(co1)-c1nc(co1)-c1nc(co1)C1=NC(CS1)c1nc-2c(C)o1 (stereo not drawn) [GM-95]
- Effect of inducing apoptosis by combined use of Telomestatin with another antitumor substance (K562 cells): act synergistically
- Antitumor action by combined use of the GM-95 substance with another antitumor substance (survival rate) (HT1080 cells; HT1080, 0.5 μM or 1 μM GM-95, simultaneous or 7 or 14 days pre-treatment, then 2 days with antitumor substance): enhanced
- Number of surviving cells (HT1080 cells; HT1080 cultured for 14 days in the presence of 1 μM GM-95 substance): very small
- Antitumor action by combined use of the GM-95 substance with another antitumor substance (survival rate) (MCF-7 cells): enhanced
- Induction of aging of cells attended with telomere shortening [1]: induces the aging of cells

SMILES: COc1cccc2c1C(=O)c1c(O)c3c(c(O)c1C2=O)C[C@@](O)(C(C)=O)C[C@@H]3O[C@H]1C[C@H](N)[C@H](O)[C@H](C)O1 [Daunorubicin]
- Effect of inducing apoptosis by combined use of Telomestatin with another antitumor substance (K562 cells): act synergistically

SMILES: Cc1ccc(NC(=O)c2ccc(CN3CCN(C)CC3)cc2)cc1Nc1nccc(-c2cccnc2)n1 [Imanitib]
- Effect of inducing apoptosis by combined use of Telomestatin with another antitumor substance (K562 cells): act synergistically

SMILES: CC[C@]1(O)C[C@H]2CN(CCc3c([nH]c4ccccc34)[C@@](C(=O)OC)(c3cc4c(cc3OC)N(C=O)[C@H]3[C@@](O)(C(=O)OC)[C@H](OC(C)=O)[C@]5(CC)C=CCN6CC[C@]43[C@@H]65)C2)C1 [Vincristine]
- Effect of inducing apoptosis by combined use of Telomestatin with another antitumor substance (K562 cells): act synergistically

SMILES: O=C1c2c(O)ccc(O)c2C(=O)c2c(NCCNCCO)ccc(NCCNCCO)c21 [Mitoxantrone]
- Effect of inducing apoptosis by combined use of Telomestatin with another antitumor substance (K562 cells): act synergistically
